Experimental data taken from paper PMC3683333, “^11C-LY2428703, a positron emission tomographic radioligand for the metabotropic glutamate receptor 1, is unsuitable for imaging in monkey and human brains” (EJNMMI Research, 2013).

Key:
mGluR1 [1] = test: Brain PET at baseline and after mGluR1 blockade, monkey; type: in vivo, rhesus monkeys (Macaca mulatta)
Procedure: (§1) Four male rhesus monkeys (Macaca mulatta, 11.7 ± 2.9 kg) were imaged in 13 PET scans. Seven scans were performed at baseline, three scans were performed after receptor blocking to calculate nondisplaceable uptake (VND), and three scans were performed after blockade of the efflux transporters at the blood–brain barrier. Receptors were blocked by mixing ^11C-LY2428703 with an mGluR1 antagonist - either nonradioactive LY2428703 (2.0 mg/kg) or LY2332084 (0.5 mg/kg) - in the same syringe. Efflux transporters were blocked in two scans by injecting DCPQ, which selectively blocks the efflux transporter ABCB1 (P-gp), and in one scan by injecting elacridar, which blocks both ABCB1 (P-gp) and ABCG2 (BCRP).
(§2) PET images were acquired using either the high-resolution research tomograph (HRRT) or the FOCUS 220 scanner (Siemens/CPS, Knoxville, TN, USA) for 120 min in 33 frames, with frame durations ranging from 30 s to 5 min, and correcting for attenuation and scatter. About 2 h before the PET scan, anesthesia was initiated with ketamine (10 mg/kg IM) and then maintained with 1% to 3% isoflurane. Electrocardiograph, body temperature, heart rate, and respiration rate were measured throughout the experiment. At baseline, the injected activity was 210 ± 51 MBq (specific activity at time of injection 43.2 ± 25.6 GBq/μmol, mass dose 6.9 ± 4.7 nmol or 0.62 ± 0.35 nmol/kg). Tissue time-activity curves were obtained from semi-automatic regions of interest encompassing the whole cerebellum and the rest of the brain. Brain uptake was expressed as standardized uptake value (SUV). Arterial input function was obtained for eight scans: four at baseline, two after blocking with nonradioactive LY2428703, one after blocking with DCPQ, and one after blocking with elacridar. Blood samples (0.5 mL each) were drawn through a port connected to the femoral artery at 15-s intervals until 2 min, followed by 1-mL samples at 3, 5, 10, 30, 60, 90, and 120 min. The plasma time-activity curve was corrected for the fraction of unchanged radioligand following the procedure detailed above.
(§3) Volumes of distribution (VT) were obtained by nonlinear compartmental analysis. Goodness-of-fit by nonlinear least squares analysis was evaluated using the Akaike Information Criterion (AIC) and Model Selection Criterion (MSC). The most appropriate model is that with the smallest AIC and the largest MSC score. Goodness-of-fit by the compartment models was compared with F statistics. A value of P < 0.05 was considered significant for F statistics. The identifiability of kinetic variables was calculated as standard error obtained from the diagonal of the covariance matrix and expressed as a percentage of the rate constant.

[2] = In vitro stability in human blood and plasma; type: in vitro ADME; settings: room temperature, 30 min
Procedure: Nonradioactive anticoagulated blood was obtained on the day of study from either human or nonhuman primates. Aliquots of ^11C-LY2428703 (about 150 kBq) were added to 0.5 mL of whole blood or 0.5 mL of plasma. Samples were incubated at room temperature for 30 min, after which either 450 μL of the radioactive plasma was added to 720 μL of acetonitrile or 200 μL of the radioactive whole blood was added to 300 μL of water. The tube containing the blood suspension was shaken well to mix and lyse the blood cells. Seven hundred and twenty microliters of acetonitrile was subsequently added and mixed well to precipitate the proteins, followed by 100 μL of water, which was again re-mixed. Radioactivity in the tubes was measured in a gamma counter and then centrifuged at 10,000×g for 1 min. The clear supernatant liquid was injected into the high-performance liquid chromatography (HPLC) column and the precipitate counted to calculate the recovery of radioactivity into the acetonitrile.
The stability of the radioligand in whole blood or plasma was calculated as the ratio of the HPLC % composition of samples divided by the radiochemical purity of the radioligand.

[3] = test system: ABCB1 (P-gp) and ABCG2 (BCRP); test: Brain PET after blockade of efflux transporters, monkey; type: in vivo, rhesus monkeys (Macaca mulatta)
Procedure: as §1, §2, §3

[4] = Plasma free fraction by ultrafiltration, human; type: in vitro ADME; settings: humans, n = 3
Procedure: The plasma free fraction (fp) of ^11C-LY2428703 was measured by ultrafiltration through membrane filters (Centrifree; Millipore, Billerica, MA, USA) as previously described. Briefly, about 740 kBq of ^11C-LY2428703 (approximately 5 μL) was added to 650 μL of plasma. The mixture was incubated at room temperature for 10 min and then processed as described previously. When radioactivities for the filter components were high, they were allowed to decay until they were within the optimal range of the γ-counter. Determining the free fraction during preblocking was done by drawing blood samples after the preblocking treatments were initiated but immediately before administering the radioligand.
PET images were acquired using the GE Advance scanner (GE Healthcare, Milwaukee, WI, USA) for 120 min. An 8-min ^68Ge transmission scan was obtained before the injection of the radiotracer for attenuation correction. The mean injected activity was 328 ± 12 MBq. The specific activity at the time of injection was 87.2 ± 34.7 GBq/μmol, which corresponded to 5.5 ± 2.3 nmol (0.082 ± 0.037 nmol/kg) of carrier. Blood samples (1 mL each) were drawn from the radial artery at 15-s intervals until 150 s, followed by 3-mL samples at 3, 4, 6, 8, 10, 15, 20, 30, 40, and 50 min, and 4.5 mL at 60, 75, 90, and 120 min. The unchanged parent fraction in plasma and fP of ^11C-LY2428703 were determined as described above.

mGluR1 [5] = target: mGluR1 (Homo sapiens, UniProt Q13255); test: Saturation binding assay with [^3H]LY456066, human cerebellar membranes; set-up: P2 membrane fractions were prepared from the cerebella of; from tissue; host or cells: human cerebellum, P2 membrane fraction; settings: humans
Chain of mGluR1 (Homo sapiens, UniProt Q13255) (Q13255 19-1194): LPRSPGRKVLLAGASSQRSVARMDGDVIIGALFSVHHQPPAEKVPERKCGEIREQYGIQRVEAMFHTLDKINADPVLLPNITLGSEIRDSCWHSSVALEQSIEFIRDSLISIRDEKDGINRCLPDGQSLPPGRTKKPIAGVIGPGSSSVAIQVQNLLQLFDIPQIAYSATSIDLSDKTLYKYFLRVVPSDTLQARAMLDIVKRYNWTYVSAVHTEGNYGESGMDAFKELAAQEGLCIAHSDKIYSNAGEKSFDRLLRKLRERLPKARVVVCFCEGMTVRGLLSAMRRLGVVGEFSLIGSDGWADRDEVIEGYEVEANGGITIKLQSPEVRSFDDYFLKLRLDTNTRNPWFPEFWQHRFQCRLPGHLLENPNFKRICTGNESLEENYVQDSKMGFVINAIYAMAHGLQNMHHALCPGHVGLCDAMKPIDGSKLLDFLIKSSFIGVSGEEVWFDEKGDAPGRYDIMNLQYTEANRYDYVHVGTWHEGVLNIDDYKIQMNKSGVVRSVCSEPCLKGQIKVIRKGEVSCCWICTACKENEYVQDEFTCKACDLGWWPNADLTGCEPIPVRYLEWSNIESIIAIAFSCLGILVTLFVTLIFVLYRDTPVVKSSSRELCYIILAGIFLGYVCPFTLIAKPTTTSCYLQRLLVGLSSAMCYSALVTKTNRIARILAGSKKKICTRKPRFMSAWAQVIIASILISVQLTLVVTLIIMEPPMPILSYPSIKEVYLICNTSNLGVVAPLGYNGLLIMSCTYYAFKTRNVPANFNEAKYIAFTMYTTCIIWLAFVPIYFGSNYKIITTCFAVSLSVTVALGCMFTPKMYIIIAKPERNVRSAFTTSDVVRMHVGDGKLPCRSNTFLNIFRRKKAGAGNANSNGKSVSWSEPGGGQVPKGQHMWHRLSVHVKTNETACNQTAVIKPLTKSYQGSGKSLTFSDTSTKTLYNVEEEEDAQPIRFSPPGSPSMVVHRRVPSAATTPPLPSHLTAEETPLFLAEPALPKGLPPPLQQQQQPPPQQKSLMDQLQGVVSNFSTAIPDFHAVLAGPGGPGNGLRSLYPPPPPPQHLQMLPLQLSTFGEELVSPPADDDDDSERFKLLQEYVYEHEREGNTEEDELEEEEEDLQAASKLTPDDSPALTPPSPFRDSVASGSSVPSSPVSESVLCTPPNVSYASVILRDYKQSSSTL
Procedure: P2 membrane fractions were prepared from the cerebella of male Sprague–Dawley rats (n = 3), male rhesus monkeys (n = 3), and female humans (n = 4). […] Nonspecific binding was defined by heterologous displacement of 1 μM LY480084 (mGlu1 antagonist) in select wells. Plates were incubated on ice for 75 min and membranes harvested on 0.3% polyethylenimine pretreated Wallac filter mats using a Tomtec Harvester MachII (Tomtec, Hamden, CT, USA). Dissociation constant (KD) and receptor density (Bmax) values were obtained in GraphPad Prism using standard nonlinear one-site binding equations. Data are presented as mean ± SEM (n = 3 to 4); one-way analysis of variance followed by Tukey's post hoc test.

Cc1c(-c2ccc(O[11CH3])cc2)nsc1NC(=O)[C@@H]1C[C@H]1C [^11C-LY2428703]
peak uptake in cerebellum (mGluR1 [1]; after mGluR1 blockade): 4.9 ± 0.8 SUV | peak uptake in forebrain (mGluR1 [1]; after mGluR1 blockade): 3.6 ± 1.9 SUV | peak uptake in cerebellum (mGluR1 [1]; baseline): 3.1 ± 1.4 SUV | peak uptake in cerebellum higher than in forebrain (mGluR1 [1]; baseline): about 50% | peak uptake in forebrain (mGluR1 [1]; baseline): 2.2 ± 0.8 SUV | time at which cerebellar uptake decreased to 50% of peak (mGluR1 [1]; baseline): about 20 min | time of peak uptake in cerebellum (mGluR1 [1]; baseline): approximately 2 min | time of peak uptake in forebrain (mGluR1 [1]; baseline): approximately 2 min | mean VT (mGluR1 [1]; baseline scans, two-tissue compartment model): 3.5 ± 1.0 mL/cm^3 | VND (mGluR1 [1]; calculated from mGluR1 blocking studies): 4.4 ± 2.9 mL/cm^3 | tracer stability ([2]; human plasma): 99.4 ± 1.4% | tracer stability ([2]; human whole blood): 99.5 ± 1.1% | VT in cerebellum ([3]; DCPQ experiment: baseline): 4.4 mL/cm^3 | VT in cerebellum ([3]; after DCPQ blockade (P-gp)): 4.2 mL/cm^3 | VT in cerebellum ([3]; after elacridar blockade (P-gp and BCRP)): 0.8 mL/cm^3 | substrate for P-gp or BCRP ([3]; based on pharmacological blockade): not a substrate | VT in cerebellum ([3]; elacridar experiment: baseline): 2.0 mL/cm^3 | fp (plasma free fraction) [4]: 0.094% | fp × Bmax/KD (=VS), effective BP (mGluR1 [5]): 0.016
